Assays:
[1] = test system: mitogen-stimulated thymocyte proliferation; assay: LAF, mitogen-stimulated thymocyte proliferation assay; format: cell-based, murine
210 kDa Protein [2] = molecular target: T1, 210 kDa Protein (Homo sapiens, UniProt P42345+P62942); assay: Affinity isolation of the 210 kDa protein from Molt 4 membrane preparations with GST-FKBP12 complexed to rapamycin or analog (binding of analog-FKBP12 complexes); conditions: isolation procedure of Example 1, Molt 4 cells
T1 construct: These proteins are isolated from membrane preparations of Molt 4 T cell leukemia; endogenous in cells; host or cells: Molt 4 cells (CHAPSO-solubilized membrane fraction); The partner GST-FKBP12 was made in house in recombinant E. coli (pGEX-FKBP)
T1 sequence (P62942 whole entry, other chains not shown): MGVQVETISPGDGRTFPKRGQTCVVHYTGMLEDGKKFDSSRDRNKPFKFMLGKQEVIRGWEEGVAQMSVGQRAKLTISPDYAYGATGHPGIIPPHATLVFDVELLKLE
Description: Molt 4 cells (1×10^9) were grown in standard media (RPMI 1640 containing 100 U/ml pennicillin, 100 ug/ml L-glutamine, 10% FCS). The cells were harvested and rinsed 3× with PBS (50 mM phosphate buffer, pH 7.0, 150 mM NaCl), flash frozen in dry-ice ethanol bath and stored at −80° C. On ice, the cells were thawed and lysed using a dounce homogenizer with B pestle in 5 ml of buffer A (10 mM Hepes, pH 7.5, 20 mM KCl, 1 mM EDTA, 0.4 mM PMSF and 2 mM 2-ME). After the debris was cleared by centrifugation at 1600 g for 10 min. and the membrane fraction was concentrated by 100,000 g centrifugation (1 hour), the 100,000 g pellet was incubated in 3 ml buffer B (50 mM Tris, pH 7.2, 100 mM NaCl, 20 mM KCl, 0.2 mM PMSF, 1 mM 2-ME, 2 mM CaCl2, 2 mM MgCl2, 5 μg/ml aprotinin, leupeptin, pepstatin A and antipain), containing 12 mM CHAPSO for two hours at 4° C. The solubilized membrane proteins were separated from the debris by a 100,000 g centrifugation. […] The supernatant was then incubated for 2 hours at 4° C. with 100 ul glutathione resin (1:1 Buffer B). Nonspecific proteins were rinsed 5× with buffer C (buffer B+0.1% Triton×100) and the proteins eluted from the resin in Laemli buffer by incubation at 95° C. for 3 minutes and microcentrifugation. The proteins were separated by size using a 7% SDS-PAGE followed by silver stain.

FKBP12 = FKBP12 (Homo sapiens, UniProt P62942); assay: Inhibition of PPIase activity of FKBP12; format: biochemical; conditions: read-out: PPlase(Ki)
Chain of FKBP12 (P62942 whole entry, species assumed): as the sequence (P62942 whole entry, other chains not shown) above

210 kDa Protein [3] = molecular target: 210 kDa Protein (Homo sapiens, UniProt P42345); assay: Modified isolation procedure: no exogenous FKBP, streptavidin-conjugated resin in place of glutathione resin; format: binding

**Q.** How did the IC50 ([1]; Mus musculus, Thymocyte) turn out when `C=CC[C@@H]1/C=C(\C)C[C@H](C)C[C@H](OC)[C@H]2O[C@@](O)(C(=O)C(=O)N3CCCC[C@H]3C(=O)O[C@H](/C(C)=C/[C@@H]3CC[C@@H](O)[C@H](OC)C3)[C@H](C)[C@@H](O)CC1=O)[C@H](C)C[C@@H]2OC` [FK506] was run?
**A.** The IC50 was 3 nM.

**Q.** With `CO[C@H]1C[C@@H]2CC[C@@H](C)[C@@](O)(O2)C(=O)C(=O)N2CCCC[C@H]2C(=O)O[C@H]([C@H](C)C[C@@H]2CC[C@@H](O)[C@H](OC)C2)CC(=O)[C@H](C)/C=C(\C)[C@@H](O)[C@@H](OC)C(=O)[C@H](C)C[C@H](C)/C=C/C=C/C=C/1C` [RAPA, Rapamycin] as the molecule, how does the IC50 ([1]; Mus musculus, Thymocyte) read?
**A.** The IC50 was 6 nM.

**Q.** Which “210 kDa protein isolated with compound:GST-FKBP12 complex (in words)” value (210 kDa Protein [2]) does the source give for `COC1CC2CCC(C)C(O)(O2)C(=O)C(=O)N2CCCCC2C(=O)OC(C(C)CC2CCC(O)C(OC)C2)CC(=O)C(C)/C=C(\C)C(O)CC(=O)C(C)CC(C)/C=C/C=C/C=C/1C` (stereo not shown) [demethoxyrapamycin] here?
**A.** The value was “same proteins were isolated”.

**Q.** And the IC50 ([1]; mitogen-stimulated thymocyte proliferation, FK506: mechanism of action is different)?
**A.** Its IC50 is 58 nM.

**Q.** What about the Ki (FKBP12) of the same molecule?
**A.** Its Ki is 4.4 nM.

**Q.** Which “immunosuppressive activity in the LAF assay (in words)” value [1] does the source give for `COC1CC2CCC(C)C(O)(O2)C(=O)C(=O)N2CCCCC2C(=O)OC(C(C)CC2CCC(OC(=O)CNC(=O)CCCCC3SCC4NC(=O)NC43)C(OC)C2)CC(=O)C(C)C=C(C)C(O)C(OC)C(=O)C(C)CC(C)C=CC=CC=C1C` (stereo not shown) [rapamycin-42-biotin glycinate ester] here?
**A.** Its value is “equivalent immunosuppressive activity”.

**Q.** What about the “210 kDa protein isolated by modified procedure (in words)” value (210 kDa Protein [3]) of the same molecule?
**A.** Its value is “Only background levels”.
